{
  "source": "paper PMC6661780",
  "about": "“Design, synthesis, antiviral bioactivities and interaction mechanisms of penta-1,4-diene-3-one oxime ether derivatives containing a quinazolin-4(3H)-one scaffold” (BMC Chemistry, 2019)",
  "molecular_target": "T1, TMV CP (TMV coat protein) (Tobacco mosaic virus (vulgare), UniProt P69687)",
  "T1 construct": "NT-647 dye labelled for MST",
  "T1 sequence (P69687 2-159 limits assumed)": "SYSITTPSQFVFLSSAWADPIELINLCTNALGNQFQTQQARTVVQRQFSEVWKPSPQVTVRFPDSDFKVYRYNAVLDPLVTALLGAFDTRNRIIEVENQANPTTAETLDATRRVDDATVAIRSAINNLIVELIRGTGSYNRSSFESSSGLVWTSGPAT",
  "test": "microscale thermophoresis (Monolith NT.[…], NT-647-labelled protein)",
  "type": "binding",
  "data": [
    {"smiles": "O=c1c2ccccc2ncn1CO/N=C(\\C=C\\c1ccccn1)/C=C/c1ccccc1OCc1ccc(Cl)cc1Cl", "note": "[8k]", "values": [
      {"measurement": "Kd", "value": "0.97 ± 0.69", "unit": "µM"}
    ]}
  ]
}
